According to patent US6313310A, “4-and 5-alkynyloxindoles and 4-and 5-alkenyloxindoles” (Hoffmann-La Roche Inc., priority 1999, dated 2001):

Biological target: rat SAPK (isoform β) (Rattus norvegicus, UniProt P49187)
Assay: SAPK FlashPlate Assay (inhibition of cJun phosphorylation)
Assay type: biochemical
Conditions: Table I B; for inhibition at 1 µM: Concentration <1.0 μM
Protocol: "IC50 " refers to the concentration of a particular 4- or 5-alkynyloxindole or 4- or 5-alkenyloxindole required to inhibit 50% of cJun phosphorylation, which is a measure of inhibition of SAPK activity. IC50 can be measured, inter alia, using the assay described herein in Example 102.
Human JNK is highly homologous to rat SAPK. To measure the inhibitory activity of test compounds, the compounds were tested in the rat SAPK assay.
For the SAPK assay, purified GST-cJun (a chimeric protein containing cjun, a natural substrate of JNK) was coated on 96 well FlashPlates (New England Nuclear, Boston, Mass.). Purified rat SAPK (isoform β, Kyriakis et al. supra) was preincubated with preparations containing MEKK-1 and MKK4 for 30 minutes at 37° C. in assay buffer containing 25 mM HEPES, pH 7.5, 150 mM NaCl, 20 mM MgCl2, 2 mM DTT, 0.001% Tween 20, 1 μM ATP freshly added. In the preincubation step, MEKK-1 phosphorylates and activates MKK-4, which in turn phosphorylates and activates SAPK. The activated SAPK was then added to the cJun coated FlashPlates along with ^33 P-ATP (0.32 μCi per reaction) and test compounds. The plates were incubated for 30 minutes at 37° C., then washed with PBS, 0.01% Tween 20, and counted in the Topcount scintillation counter (Packard Instrument Co., Downers Grove, Ill.). Dilutions of compounds were tested in duplicate in each assay. The percent inhibition of cJun phosphorylation (a measure of inhibition of SAPK activity) was determined by the following formula: [formula]
where "test compound" refers to the average counts per minute of the test duplicates, "nonspecific" refers to the average counts per minute when no SAPK was added, and "total" refers to the average counts per minute when no compound was added.

Chain of rat SAPK (isoform β) (P49187 whole entry, canonical isoform): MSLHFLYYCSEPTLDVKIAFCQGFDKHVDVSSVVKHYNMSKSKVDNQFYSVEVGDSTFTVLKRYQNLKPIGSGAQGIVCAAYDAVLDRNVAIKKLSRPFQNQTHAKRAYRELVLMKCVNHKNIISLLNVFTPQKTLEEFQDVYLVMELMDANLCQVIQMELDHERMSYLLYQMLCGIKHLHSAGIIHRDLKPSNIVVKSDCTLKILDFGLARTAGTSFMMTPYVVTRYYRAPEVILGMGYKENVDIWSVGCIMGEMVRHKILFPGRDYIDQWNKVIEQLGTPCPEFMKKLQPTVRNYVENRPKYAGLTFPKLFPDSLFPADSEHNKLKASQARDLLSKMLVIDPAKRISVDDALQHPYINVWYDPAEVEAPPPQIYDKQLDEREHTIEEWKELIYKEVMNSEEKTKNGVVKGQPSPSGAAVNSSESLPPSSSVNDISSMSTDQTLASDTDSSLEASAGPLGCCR

Row | SMILES | inhibition at 1 µM [%] | inhibition at 0.1 µM (Concentration <0.10 μM) [%]
1 | COc1cc[nH]c1/C=C1\C(=O)Nc2cccc(C#CC(O)c3cccn3C)c21 (racemic) [AA, rac-(Z)-1,3-Dihydro-4-[3-hydroxy-3-(1-methyl-pyrrol-2-yl)-1-propynyl]-3-[(3-methoxy-1H-pyrrol-2-yl)methylene]-2H-indol-2-one] | > 50 | –
2 | COc1cc(C(O)C#Cc2cccc3c2/C(=C/c2[nH]ccc2OC)C(=O)N3)ccc1O (racemic) [O, rac-(Z)-1,3-Dihydro-4-[3-hydroxy-3-(4-hydroxy-3-methoxyphenyl)-1-propynyl]-3-[(3-methoxy-1H-pyrrol-2-yl)methylene]-2H-indol-2-one] | > 50 | –
3 | COc1cc[nH]c1/C=C1\C(=O)Nc2ccc(NC(=O)Cc3cccs3)c(C#Cc3cccnc3)c21 [III] | – | < 50
